{"source": "paper PMC9145754", "about": "“Novel Soloxolone Amides as Potent Anti-Glioblastoma Candidates: Design, Synthesis, In Silico Analysis and Biological Activities In Vitro and In Vivo” (Pharmaceuticals, 2022)", "key": {"[1]": {"test": "Toxicity assessment (body weight, organ indexes)", "assay_type": "in vivo, Balb/C nude mice", "method": "(seven injections were performed in total) and brain tissue was collected 48 h after the last injection of 12 followed by a high-performance liquid chromatography–tandem mass spectrometry (HPLC–MS/MS) analysis of the obtained samples (Figure 3D). This treatment regimen was chosen due to its common usage in the evaluation of antitumor activity of various low-molecular weight compounds in xenograft murine models. […] Before the HPLC–MS/MS analysis, chromatographic conditions and mass spectrometer parameters for detecting both semisynthetic triterpenoid 12 and the internal standard in the multiple reaction monitoring (MRM) mode were optimized. The optimized parameters are given in Supplementary Table S1.\nDuring the experiment, the general status of the animals and body weight was monitored. At the end of the experiment, organs were collected and organ indexes were calculated as (organ weight/body weight) × 100%."}, "HeLa cells": {"tested_on": "HeLa cells", "test": "MTT cytotoxicity assay, HeLa", "assay_type": "cell-based", "conditions": "Homo sapiens, 24 h, read-out: IC50, Cervix, HeLa", "method": "(§1) In the first step of the study, we analyzed the cytotoxicity of novel soloxolone derivatives 1–12 in a panel of tumor cells, including human cervical carcinoma HeLa, human duodenal carcinoma HuTu-80 and murine melanoma B16 cells, as well as human non-transformed hFF3 foreskin fibroblasts. The cells were treated with derivatives for 24 h and cell viability was evaluated by 3-(4,5-dimethylthiazol-2-yl)-2,5-diphenyltetrazolium bromide (MTT) assay. SM was used as the reference compound.\n(§2) The cells in the exponential growth phase were seeded in quadruplicate in 96-well plates at a density of 1 × 10^4 cells/well for HeLa, U87, U118, KELLY and Neuro2a cells; 1.5 × 10^4 cells/well for HuTu-80 cells; 2 × 10^4 cells/well for B16 cells; and 7 × 10^3 cells/well for hFF3 fibroblasts. Cells were incubated under standard conditions overnight followed by their treatment with the investigated compounds (1–20 µM) for 24 h. Then, 10 µL of MTT solution was added to the cells to a final concentration of 0.5 mg/mL and plates were placed under standard conditions for 3 h followed by an aspiration of MTT-containing medium and a dissolution of formazan crystals with 100 µL of DMSO. The absorbance of each well was read at test and reference wavelengths of 570 and 620 nm, respectively, on a Multiscan RC plate reader (Thermo LabSystems, Helsinki, Finland)."}, "U87 cells [2]": {"tested_on": "U87 cells", "test": "Vasculogenic mimicry on Matrigel", "assay_type": "cell-based, human", "conditions": "12 at 200 nM, 5 h", "method": "Considering that vasculogenic mimicry (VM), a process whereby tumor cells form tumor cell-lined vasculatures to reinforce blood supply to cancerous tissue, plays a crucial role in glioblastoma progression and aggressiveness and that some pentacyclic triterpenoids can inhibit this process, next we studied whether 12 affects VM in glioblastoma cells.\nA 96-well plate was placed on ice for pre-cooling and Matrigel®® Matrix (Corning, Corning, NY, USA) was thawed at 4 °C and added to each well of the plate (50 μL/well). Then, the plate was placed at 37 °C in 5% CO2 for 1 h to solidify the Matrigel. U87 cells were seeded at 2 × 10^4 cells/well on the Matrigel-coated wells and treated with 12 at 200 nM for 5 h. At the end of the incubation time, each well was analyzed under a microscope with a phase contrast Primo Vert (ZEISS, Germany). Tubular structures in each field were imaged with a AxioCam ERc5s camera (ZEISS, Germany) and the average number of tubules from three to four random fields in each well was quantified by ImageJ. The experiment was performed in triplicate."}, "U87 cells [3]": {"tested_on": "U87 cells", "test": "Cytotoxicity of 12 with N-acetyl-L-cysteine (MTT)", "assay_type": "cell-based", "conditions": "U87, 12 at 4 µM with NAC, 24 h", "method": "To check the ability of 12 to influence ROS production, U87 cells treated with 12 (4 µM) for 24 h were stained with dichlorodihydrofluorescein diacetate (DCFDA) and analyzed by flow cytometry. […] Since ROS play an important role in the regulation of cell death, we further examined whether ROS production mediated the cytotoxicity of 12 with respect to glioblastoma cells.\nIn order to understand whether ROS play a crucial role in compound 12-induced cell death, U87 cells were plated in quadruplicate in 96-well plates at a density of 1 × 10^4 cells/well and incubated in the presence of 12 at 4 µM and N-Acetyl-L-cysteine (NAC) at […] for 24 h under standard conditions. Then, cell viability was measured using an MTT test."}, "HuTu-80 cells": {"tested_on": "HuTu-80 cells", "test": "MTT cytotoxicity assay, HuTu-80", "assay_type": "cell-based", "conditions": "Homo sapiens, HuTu80, 24 h, read-out: IC50, Duodenum, HuTu-80", "method": "as §1, §2"}, "glioblastoma cells": {"tested_on": "glioblastoma cells", "test": "Cell survival at non-toxic concentrations", "assay_type": "cell-based", "conditions": "12 at 25–500 nM (non-toxic concentrations)", "method": "To evaluate the antitumor potential of 12 more comprehensively, its effects at non-toxic concentrations (25–500 nM; cell survival of ≥90%) on a range of metastatic-related processes in glioblastoma cells were studied. Firstly, we investigated the inhibitory activity of 12 on the clonogenic capacity of tumor cells in vitro, which reflects their ability to form colonies from single cells which characterizes the stemness of tumor cells and plays a crucial role in metastasis."}, "KELLY cells": {"tested_on": "KELLY cells", "test": "MTT cytotoxicity assay, KELLY", "assay_type": "cell-based", "conditions": "Homo sapiens, 24 h, read-out: IC50, Neuroblastoma, KELLY", "method": "To evaluate the antitumor activity of the synthesized soloxolone amides in brain tumor cells, the cytotoxicity of compounds 4–12, predicted as BBB-permeable (Figure 3), was further analyzed in human glioblastoma U87 and U118 cells, as well as human neuroblastoma KELLY and murine neuroblastoma Neuro2a cells.\nas §2"}, "U87 cells [4]": {"tested_on": "U87 cells", "test": "Mitochondrial mass, MitoTracker Green", "assay_type": "cell-based, human", "conditions": "24 h", "method": "Next, to evaluate whether the observed compound 12-driven disturbance of mitochondrial homeostasis in glioblastoma cells involved an alteration in mitochondrial abundance, U87 cells were treated with 12 at 2 and 4 µM for 24 h and stained with MitoTracker Green, a fluorescent probe accumulated in mitochondria ΔψM-independently. […] The obtained results agree well with published data: Yang et al. and Gibellini et al. found a similar increase in mitochondrial mass in RAW264.7 macrophages and colon carcinoma RKO cells treated with CDDO-Im and CDDO, respectively. We suppose that the observed triterpenoid-induced mitogenesis in glioblastoma cells is mediated by compensatory mechanisms in response to compound 12-triggered mitochondrial stress and that it plays a cytoprotective role—high mitochondrial mass is known to be highly correlated with chemotherapy-driven redundant production of reactive oxygen species (ROS) in tumor cells and to underlie their chemoresistance.\nU87 cells were seeded at a density of 2.8 × 10^5 cells/well in 6-well plates and incubated overnight, followed by their treatment with 12 at 2 and 4 µM for 24 h. […] Thereafter, the cells were washed twice with PBS and analyzed by flow cytometry. In total, 10,000 events were recorded for each sample."}}}
{"smiles": "CC1(C)C(=O)C(C#N)=C[C@]2(C)C3=CC(=O)[C@@H]4[C@@H]5C[C@@](C)(C(=O)NCCc6c[nH]c7ccccc67)CC[C@]5(C)CC[C@@]4(C)[C@]3(C)CC[C@@H]12", "note": "[compound 12]", "values": [{"measurement": "organ indexes in experimental and control groups", "setting": "[1]; U87 glioblastoma-bearing mice, 20 mg/kg i.p.", "value": "did not reveal significant differences"}, {"measurement": "mouse body weight compared to untreated mice", "setting": "[1]; nude mice, 50 mg/kg i.p., thrice a week for two weeks", "value": "did not reveal significant changes"}, {"measurement": "IC50", "setting": "HeLa cells", "value": "1500 ± 100", "unit": "nM"}, {"measurement": "decrease in numbers of tubular structures compared with untreated cells", "setting": "U87 cells [2]", "value": 2.2, "unit": "fold"}, {"measurement": "effect of NAC on cytotoxic effect of 12", "setting": "U87 cells [3]", "value": "complete abrogation of the cytotoxic effect"}, {"measurement": "IC50", "setting": "HuTu-80 cells", "value": "1500 ± 100", "unit": "nM"}, {"measurement": "cell survival", "setting": "glioblastoma cells", "value": "≥ 90", "unit": "%"}, {"measurement": "IC50", "setting": "KELLY cells", "value": "1800 ± 100", "unit": "nM"}, {"measurement": "induction of mitochondrial biogenesis", "setting": "U87 cells [4]; U87, 12 at 2 µM", "value": "statistically insignificant"}, {"measurement": "increase of mitochondrial mass compared to the control", "setting": "U87 cells [4]; U87, 12 at 4 µM", "value": 1.6, "unit": "fold"}]}
